Data taken from PubChem BioAssay (NCI).
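Test compounds were applied to cells in 96-well plates for 48 hours at 5 doses. The concentration for 50% growth inhibition is given as GI50. TGI: concentration producing complete growth inhibition.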

Legend:
Assay in all cases: growth of human tumour cells (NCI), 48 h
OVCAR-8 ovarian = tested on: OVCAR-8 ovarian
COLO 205 colon = tested on: COLO 205 colon
SK-MEL-5 melanoma = tested on: SK-MEL-5 melanoma
RXF 393 renal = tested on: RXF 393 renal
ACHN renal = tested on: ACHN renal
KM12 colon = tested on: KM12 colon
PC-3 prostate = tested on: PC-3 prostate
OVCAR-3 ovarian = tested on: OVCAR-3 ovarian
BT-549 breast = tested on: BT-549 breast
SNB-19 CNS = tested on: SNB-19 CNS
M14 melanoma = tested on: M14 melanoma
TK-10 renal = tested on: TK-10 renal
CCRF-CEM leukemia = tested on: CCRF-CEM leukemia
HOP-62 NSCLC = tested on: HOP-62 NSCLC
SF-268 CNS = tested on: SF-268 CNS
NCI-H226 lung = tested on: NCI-H226 lung
MALME-3M melanoma = tested on: MALME-3M melanoma
SN12C renal = tested on: SN12C renal
MOLT-4 leukemia = tested on: MOLT-4 leukemia
A498 renal = tested on: A498 renal
K-562 leukemia = tested on: K-562 leukemia
HCT-116 colon = tested on: HCT-116 colon
HT29 colon = tested on: HT29 colon
LOX IMVI melanoma = tested on: LOX IMVI melanoma
786-0 renal = tested on: 786-0 renal
UACC-257 melanoma = tested on: UACC-257 melanoma
SR leukemia = tested on: SR leukemia
HOP-92 NSCLC = tested on: HOP-92 NSCLC

`O=C1C2=C(C(=O)c3c(O)cccc31)C(c1ccco1)c1sc(=O)[nH]c1S2` (stereo not given) was tested, and the GI50 (OVCAR-8 ovarian) was 2.46 µM, the TGI (OVCAR-8 ovarian) was 8.97 µM and the GI50 (COLO 205 colon) was 1.89 µM. The TGI (COLO 205 colon) was 3.61 µM, the GI50 (SK-MEL-5 melanoma) was 1.59 µM and the TGI (SK-MEL-5 melanoma) was 3 µM. The GI50 (RXF 393 renal) was 2.02 µM, the TGI (RXF 393 renal) was 5.57 µM and the GI50 (ACHN renal) was 4.08 µM. The TGI (ACHN renal) was 16.1 µM, the GI50 (KM12 colon) was 3.71 µM and the TGI (KM12 colon) was 31.3 µM. For the same compound, the GI50 (PC-3 prostate) was 2.75 µM, the TGI (PC-3 prostate) was 21.6 µM and the GI50 (OVCAR-3 ovarian) was 2.86 µM. For the same compound, the TGI (OVCAR-3 ovarian) was 14 µM, the GI50 (BT-549 breast) was 1.64 µM and the TGI (BT-549 breast) was 3.2 µM. It also gave a GI50 (SNB-19 CNS) of 2.6 µM, a TGI (SNB-19 CNS) of 7.33 µM and a GI50 (M14 melanoma) of 1.06 µM. It also gave a TGI (M14 melanoma) of 2.37 µM, a GI50 (TK-10 renal) of 12.3 µM and a TGI (TK-10 renal) of 26.4 µM. For the same compound, the GI50 (CCRF-CEM leukemia) was 3.29 µM, the TGI (CCRF-CEM leukemia) was greater than 100 µM and the GI50 (HOP-62 NSCLC) was 2.04 µM. The TGI (HOP-62 NSCLC) was 3.74 µM, the GI50 (SF-268 CNS) was 3.48 µM and the TGI (SF-268 CNS) was 19.2 µM. For the same compound, the GI50 (NCI-H226 lung) was 2.18 µM, the TGI (NCI-H226 lung) was 5.46 µM and the GI50 (MALME-3M melanoma) was 0.755 µM. It also gave a TGI (MALME-3M melanoma) of 2 µM, a GI50 (SN12C renal) of 1.74 µM and a TGI (SN12C renal) of 3.49 µM. It also gave a GI50 (MOLT-4 leukemia) of 2.71 µM, a TGI (MOLT-4 leukemia) of 9.88 µM and a GI50 (A498 renal) of 3.48 µM. It also gave a TGI (A498 renal) of 9.69 µM, a GI50 (K-562 leukemia) of 2.84 µM and a TGI (K-562 leukemia) greater than 100 µM. It also gave a GI50 (HCT-116 colon) of 2.36 µM, a GI50 (HT29 colon) of 3.31 µM and a TGI (HT29 colon) of 9.25 µM. For the same compound, the GI50 (LOX IMVI melanoma) was 2.21 µM, the TGI (LOX IMVI melanoma) was 7.55 µM and the GI50 (786-0 renal) was 7.09 µM. The TGI (786-0 renal) was 24.2 µM, the GI50 (UACC-257 melanoma) was 1.57 µM and the TGI (UACC-257 melanoma) was 3.26 µM. The GI50 (SR leukemia) was 3.05 µM, the TGI (SR leukemia) was 69.5 µM and the GI50 (HOP-92 NSCLC) was 3.15 µM. For the same compound, the TGI (HOP-92 NSCLC) was 8.08 µM.
